# In ChEMBL document CHEMBL4346757, “Synthesis and biological evaluation of 7-methoxy-1-(3,4,5-trimethoxyphenyl)-4,5-dihydro-2H-benzo[e]indazoles as new colchicine site inhibitors” (Bioorg Med Chem Lett, 2019):
# How the values were obtained:
# Tubulin = Tubulin (Bos taurus, UniProt Q6B856+Q862L2+Q862F3); experiment: Inhibition of bovine brain tubulin polymerization measured every 1 min for 60 mins by turbidimetry based microplate reader analysis
# COLO 205 = experiment: Antiproliferative activity against human COLO205 cells assessed as reduction in cell viability by MTT assay; type: functional, cell-based
# HCT-116 = experiment: Antiproliferative activity against human HCT116 cells assessed as reduction in cell viability by MTT assay; type: functional, cell-based
Structure (SMILES),IC50 (Tubulin; read-out: IC50) [nM],IC50 (COLO 205) [nM],IC50 (HCT-116) [nM],IC50 (Tubulin) [nM]
COc1ccc(-c2[nH]nc3c2-c2cc(OC)c(OC)c(OC)c2CC3)cc1,6600,37,–,–
COc1ccc2c(c1)CCc1nn(-c3ccccc3)c(-c3cc(OC)c(OC)c(OC)c3)c1-2,–,> 10000,5240,> 10000
COc1ccc2c(c1)CCc1nn(CCO)c(-c3cc(OC)c(OC)c(OC)c3)c1-2,–,560,1200,> 10000
COc1ccc2c(c1)CCc1nn(C)c(-c3cc(OC)c(OC)c(OC)c3)c1-2,–,19,1,1500
CCOC(=O)Cn1nc2c(c1-c1cc(OC)c(OC)c(OC)c1)-c1ccc(OC)cc1CC2,–,8240,> 10000,> 10000
COc1ccc(/C=C\c2cc(OC)c(OC)c(OC)c2)cc1O [COMBRETASTATIN A4],–,1,1,–
